According to US12180252B2, “Peptide derived from PEP27 peptide and uses thereof” (priority 2021, dated 2024):
In brackets after ≈: the same amount, converted by molar mass. Like-named read-outs stand apart in the source and are kept apart here. Where a SMILES comes first, the peptide text is derived from it.

How the values were obtained:
L. monocytogens KCTC3710 = assay type: cell-based, Listeria monocytogenes
Procedure: (§1) In order to evaluate the antimicrobial activity of the peptides prepared by the method of above 1, a minimal inhibitory concentration (MIC) value as the minimum concentration of a peptide, in which cells are not divided, was measured.
(§2) Specifically, the strains shown in Table 3 below were purchased, cultured in a medium having a constitutional composition suitable for each strain to a mid-log phase, and then diluted to a concentration of 2×10^4 cells/100 μl to prepare the product on a micro-titration plate (Nunc, USA). Then, PEP27, PEP27-1, PEP27-2 or PEP27-5 peptide synthesized in the above 1 was added to each well by serial dilution ½ times, followed by incubation at 37° C. for 18 hours.

E. coli ATCC27325 [1] = assay type: cell-based, Escherichia coli
Procedure: as §1, §2

E. coli CCARM1238 [2] = assay type: cell-based, Escherichia coli; conditions: E. coli CCARM1238, antibiotics-tolerant; 37° C., 18 hours
Procedure: as §1, §2

P. aeruginosa 4007 = assay: microbe, parasite or virus in culture
Summary of the method: (§3)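 Peptide growth inhibition measured by twofold dilution against mid-log bacteria (2×10^4 cells/100 μl), 37° C, 18 hours; endpoint was absence of cell division. Meropenem, ceftazidime, ceftriaxone and vancomycin were run in parallel.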

P. aeruginosa 4891 [3] = assay: microbe, parasite or virus in culture
Summary of the method: as §3

P. aeruginosa ATCC15692 = assay: microbe, parasite or virus in culture
Summary of the method: as §3

S. aureus CCARM3089 [4] = assay: microbe, parasite or virus in culture; conditions: S. aureus CCARM3089, antibiotics-tolerant; 37° C., 18 hours
Summary of the method: as §3

S. aureus CCARM3090 [5] = assay: microbe, parasite or virus in culture; conditions: S. aureus CCARM3090, antibiotics-tolerant; 37° C., 18 hours
Summary of the method: as §3

S. aureus CCARM3518 [6] = assay: microbe, parasite or virus in culture; conditions: S. aureus CCARM3518, antibiotics-tolerant; 37° C., 18 hours
Summary of the method: as §3

HaCaT and MCF-7 cells = assay: MTT cytotoxicity; assay type: cell-based, human; conditions: for toxicity relative to the antimicrobial concentration range: mouse erythrocytes and human cells
Procedure: Specifically, Thiazolyl blue tetrazolium bromide (MTT, Merck KGaA) was used to determine the cytotoxicity of PEP27 and its analogs against HaCaT (human keratinocyte […], n=4 per condition) and MCF-7 (human breast adenocarcinoma, n=3 per condition) cells. The cells were cultured in Dulbecco's modified Eagle's medium (DMEM) supplemented with 10 heat-inactivated fetal bovine serum (FBS, Gibco, Grand Island, NY, USA) and 1% penicillin-streptomycin (Gibco) at a density of 2×10^4 cells/well (96-well plate). Peptides were then added at various concentrations and incubated for 24 h at 37° C., after which MTT (final concentration, 0.5 mg/mL) was added to each well and incubated for 4 h. The formazan product was solubilized in DMSO, and the absorbance at 570 nm was measured to […] cytotoxicity. Cells treated with 0.1% Triton X-100 were used as the 100% cytotoxic control sample.

S. aureus ATCC25923 = assay type: cell-based, Staphylococcus aureus
Text: (§4) Biofilms may form on a wide variety of surfaces, including living or dead surfaces, and biofilm-associated bacteria are more tolerant to antibiotics than planktonic bacterial cells, making them antibiotic-resistant. To assess the efficacy of PEP27-2 against biofilms, we observed the anti-biofilm activity of PEP27-2 in S. aureus (ATCC 25923 and CCARM 3090), E. coli (ATCC 25922 and CCARM 1238), and P. aeruginosa (ATCC 27853 and 4891).
(§5) Specifically, among the strains listed in Table 3 above, Staphylococcus aureus, E. coli and Pseudomonas erujinosa, respectively, were cultured in each medium to a mid-log phase, diluted to a cell concentration of 5×10^4 cells/100 μl, and then, inoculated into a micro-plate (SPL). Then, PEP27-2 peptide was diluted 1/10 times with 10 mM PBS solution (pH 7.2) and 10 μl of the solution was added to each well, followed by incubation at 37° C. for 24 hours. After completely removing the supernatant, the solution was fixed with 100% methanol for 15 minutes, stained with a crystal violet dye solution for 1 hour, washed 3 times, and then dissolved in 95% ethanol, followed by measuring the absorbance at a wavelength of 595 nm using a micro titration plate reader, thereby determining a biofilm minimal inhibitory concentration value for each strain.

S. aureus ATCC29213 = assay type: cell-based, Staphylococcus aureus
Text: as §4, §5

S. aureus CCARM3089 [7] = assay type: cell-based, Staphylococcus aureus; conditions: 37° C., 24 hours
Text: as §4, §5

S. aureus CCARM3090 [8] = assay type: cell-based, Staphylococcus aureus; conditions: 37° C., 24 hours
Text: as §4, §5

S. aureus CCARM3518 [9] = assay type: cell-based, Staphylococcus aureus; conditions: 37° C., 24 hours
Text: as §4, §5

E. coli ATCC25922 = assay type: cell-based, Escherichia coli
Text: as §4, §5

E. coli ATCC27325 [10] = assay type: cell-based, Escherichia coli; remark: listed apart in the source
Text: as §4, §5

E. coli CCARM1238 [11] = assay type: cell-based, Escherichia coli; conditions: 37° C., 24 hours
Text: as §4, §5

P. aeruginosa 4891 [12] = assay type: cell-based, Pseudomonas aeruginosa
Text: as §4, §5

P. aeruginosa ATCC27853 = assay type: cell-based, Pseudomonas aeruginosa
Text: as §4, §5

E. coli CCARM1229 = assay type: cell-based, Escherichia coli; conditions: 37° C., 24 hours

CC[C@H](C)[C@H](NC(=O)CN)C(=O)NCC(=O)N[C@@H](C)C(=O)N[C@H](C(=O)N[C@@H](CC(C)C)C(=O)N[C@@H](CCCCN)C(=O)N[C@H](C(=O)N[C@@H](CC(C)C)C(=O)N[C@H](C(=O)N[C@H](C(=O)NCC(=O)N[C@@H](CC(C)C)C(=O)N1CCC[C@H]1C(=O)N[C@@H](C)C(=O)N[C@@H](CC(C)C)C(=O)N[C@H](C(=O)N[C@@H](CO)C(=O)N[C@@H](Cc1c[nH]c2ccccc12)C(=O)N[C@H](C(=O)N[C@@H](CCCCN)C(=O)N[C@@H](CCCNC(=N)N)C(=O)N[C@@H](CCCCN)C(=O)N[C@@H](CCCNC(=N)N)C(=O)N[C@@H](CCC(N)=O)C(=O)N[C@@H](CCC(N)=O)C(N)=O)[C@@H](C)CC)[C@@H](C)CC)[C@@H](C)O)[C@@H](C)O)C(C)C)C(C)C [Melittin, reference compound]
Minimal inhibitory concentration (L. monocytogens KCTC3710; L. monocytogens KCTC3710, Gram-positive, 37° C., 18 hours): 4 µM (≈ 11.4 µg/mL)
Minimal inhibitory concentration (E. coli ATCC27325 [1]; E. coli ATCC27325, Gram-negative, 37° C., 18 hours): 2 µM (≈ 5.69 µg/mL)
Minimal inhibitory concentration (E. coli CCARM1238 [2]): 4 µM (≈ 11.4 µg/mL)
Minimal inhibitory concentration (P. aeruginosa 4007; P. aeruginosa 4007, antibiotics-tolerant, 37° C., 18 hours): 2 µM (≈ 5.69 µg/mL)
Minimal inhibitory concentration (P. aeruginosa 4891 [3]; P. aeruginosa 4891, antibiotics-tolerant, 37° C., 18 hours): 2 µM (≈ 5.69 µg/mL)
Minimal inhibitory concentration (P. aeruginosa ATCC15692; P. aeruginosa ATCC15692, Gram-negative, 37° C., 18 hours): 2 µM (≈ 5.69 µg/mL)
Minimal inhibitory concentration (S. aureus CCARM3089 [4]): 2 µM (≈ 5.69 µg/mL)
Minimal inhibitory concentration (S. aureus CCARM3090 [5]): 4 µM (≈ 11.4 µg/mL)
Minimal inhibitory concentration (S. aureus CCARM3518 [6]): 2 µM (≈ 5.69 µg/mL)
toxicity relative to the antimicrobial concentration range (HaCaT and MCF-7 cells): begins to show toxicity within the range of antibacterial activity
Biofilm minimal inhibitory concentration (S. aureus ATCC25923; S. aureus ATCC25923, 37° C., 24 hours): 4 µM
Biofilm minimal inhibitory concentration (S. aureus ATCC29213; S. aureus ATCC29213, 37° C., 24 hours): 4 µM
Biofilm minimal inhibitory concentration (S. aureus CCARM3089 [7]): 4 µM
Biofilm minimal inhibitory concentration (S. aureus CCARM3090 [8]): 4 µM
Biofilm minimal inhibitory concentration (S. aureus CCARM3518 [9]): 8 µM
Biofilm minimal inhibitory concentration (E. coli ATCC25922; E. coli ATCC25922, 37° C., 24 hours): 4 µM
Biofilm minimal inhibitory concentration (E. coli ATCC27325 [10]; E. coli ATCC27325, 37° C., 24 hours): 4 µM
Biofilm minimal inhibitory concentration (E. coli CCARM1238 [11]): 4 µM
Biofilm minimal inhibitory concentration (P. aeruginosa 4891 [12]; P. aeruginosa 4891, 37° C., 24 hours): 8 µM
Biofilm minimal inhibitory concentration (P. aeruginosa ATCC27853; P. aeruginosa ATCC27853, 37° C., 24 hours): 4 µM
Biofilm minimal inhibitory concentration (E. coli CCARM1229): 4 µM

CSCC[C@H](N)C(=O)N[C@@H](Cc1c[nH]c2ccccc12)C(=O)N[C@@H](CCCCN)C(=O)N[C@@H](Cc1c[nH]c2ccccc12)C(=O)N[C@@H](Cc1ccccc1)C(=O)N[C@@H](Cc1c[nH]cn1)C(=O)N[C@@H](CC(N)=O)C(=O)N[C@H](C(=O)N[C@@H](CC(C)C)C(=O)N[C@@H](CO)C(=O)N[C@@H](Cc1c[nH]c2ccccc12)C(=O)NCC(=O)N[C@@H](Cc1c[nH]c2ccccc12)C(=O)N[C@@H](CC(C)C)C(=O)N[C@@H](CC(C)C)C(=O)N[C@@H](C)C(=O)N[C@@H](CC(=O)O)C(=O)N[C@@H](CCCCN)C(=O)N[C@@H](CCCNC(=N)N)C(=O)N1CCC[C@H]1C(=O)N[C@@H](C)C(=O)N[C@@H](CCCNC(=N)N)C(=O)N[C@@H](CC(=O)O)C(=O)N[C@@H](Cc1ccc(O)cc1)C(=O)N[C@@H](CC(N)=O)C(=O)N[C@@H](CCCNC(=N)N)C(=O)N[C@@H](CCCCN)C(N)=O)C(C)C [PEP27-2] (H-MWKWFHNVLSWGWLLADKRPARDYNRK-NH2)
Minimal inhibitory concentration (L. monocytogens KCTC3710; KCTC3710, 18 h): 8 µM (≈ 27.8 µg/mL)
Minimal inhibitory concentration (E. coli ATCC27325 [1]; ATCC27325, 18 h): 4 µM (≈ 13.9 µg/mL)
Minimal inhibitory concentration (E. coli CCARM1238 [2]): 4 µM (≈ 13.9 µg/mL)
Minimal inhibitory concentration (P. aeruginosa 4007; 4007, 18 h): 4 µM (≈ 13.9 µg/mL)
Minimal inhibitory concentration (P. aeruginosa 4891 [3]; 4891, 18 h): 4 µM (≈ 13.9 µg/mL)
Minimal inhibitory concentration (P. aeruginosa ATCC15692; ATCC15692, 18 h): 4 µM (≈ 13.9 µg/mL)
Minimal inhibitory concentration (S. aureus CCARM3089 [4]): 4 µM (≈ 13.9 µg/mL)
Minimal inhibitory concentration (S. aureus CCARM3090 [5]): 4 µM (≈ 13.9 µg/mL)
Minimal inhibitory concentration (S. aureus CCARM3518 [6]): 4 µM (≈ 13.9 µg/mL)
cell viability (HaCaT and MCF-7 cells; 100 μM, 24 h, MTT, HaCaT and MCF-7 cells): 19%-23%
toxicity relative to the antimicrobial concentration range (HaCaT and MCF-7 cells): not toxic within the range of antimicrobial activity or 4×MIC concentration
maximum percent biofilm inhibition (S. aureus ATCC25923; ATCC25923): 83.4%
Biofilm minimal inhibitory concentration (S. aureus ATCC25923; ATCC25923, 24 h): 4 µM
Biofilm minimal inhibitory concentration (S. aureus ATCC29213; ATCC29213, 24 h): 4 µM
Biofilm minimal inhibitory concentration (S. aureus CCARM3089 [7]): 4 µM
Biofilm minimal inhibitory concentration (S. aureus CCARM3090 [8]): 4 µM
Biofilm minimal inhibitory concentration (S. aureus CCARM3518 [9]): 4 µM
maximum percent biofilm inhibition (E. coli ATCC25922; ATCC25922): 91.8%
Biofilm minimal inhibitory concentration (E. coli ATCC25922; ATCC25922, 24 h): 8 µM
Biofilm minimal inhibitory concentration (E. coli ATCC27325 [10]; ATCC27325, 24 h): 8 µM
Biofilm minimal inhibitory concentration (E. coli CCARM1238 [11]): 8 µM
Biofilm minimal inhibitory concentration (P. aeruginosa 4891 [12]; 4891, 24 h): 8 µM
maximum percent biofilm inhibition (P. aeruginosa ATCC27853; ATCC27853): 81.2%
Biofilm minimal inhibitory concentration (P. aeruginosa ATCC27853; ATCC27853, 24 h): 8 µM
Biofilm minimal inhibitory concentration (E. coli CCARM1229): 8 µM
